Experimental data: PubChem BioAssay (NCI)
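Values below derive from 48-hour exposures of cells grown in 96-well plates, with endpoints linearly interpolated between the two concentrations bracketing the appropriate inhibition level. At the TGI there is no net growth.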

Columns and labels:
Experiment in all cases: NCI tumour cell line growth inhibition, 48 h
[1] = tested on: SK-MEL-28 melanoma
[2] = tested on: A549 NSCLC
[3] = tested on: HOP-62 NSCLC
[4] = tested on: HCT-116 colon
[5] = tested on: MDA-MB-435
[6] = tested on: SR leukemia
[7] = tested on: HCT-15 colon
[8] = tested on: NCI-H460 lung
[9] = tested on: KM12 colon
[10] = tested on: NCI/ADR-RES ovarian
[11] = tested on: BT-549 breast
[12] = tested on: HOP-92 NSCLC
[13] = tested on: NCI-H23 lung
[14] = tested on: UACC-257 melanoma
[15] = tested on: OVCAR-8 ovarian
[16] = tested on: SK-OV-3 ovarian
[17] = tested on: SW-620 colon
[18] = tested on: ACHN renal
[19] = tested on: MCF7 breast
[20] = tested on: EKVX NSCLC
[21] = tested on: IGROV1 ovarian
[22] = tested on: MDA-N
[23] = tested on: U251 CNS
[24] = tested on: HCC-2998 colon
[25] = tested on: SN12C renal
[26] = tested on: LOX IMVI melanoma
[27] = tested on: T-47D breast
[28] = tested on: UACC-62 melanoma
[29] = tested on: HS 578T breast
[30] = tested on: A498 renal
[31] = tested on: 786-0 renal
[32] = tested on: NCI-H522 lung
[33] = tested on: DU-145 prostate
[34] = tested on: MALME-3M melanoma
[35] = tested on: RPMI-8226 leukemia
[36] = tested on: CAKI-1 renal
[37] = tested on: HT29 colon
[38] = tested on: M14 melanoma
[39] = tested on: MDA-MB-231 breast
[40] = tested on: OVCAR-4 ovarian
[41] = tested on: RXF 393 renal
[42] = tested on: OVCAR-5 ovarian
[43] = tested on: UO-31 renal
[44] = tested on: SNB-19 CNS
[45] = tested on: K-562 leukemia
[46] = tested on: SK-MEL-2 melanoma
[47] = tested on: OVCAR-3 ovarian
[48] = tested on: SF-295 CNS
[49] = tested on: SNB-75 CNS
[50] = tested on: HL-60(TB) leukemia
[51] = tested on: PC-3 prostate
[52] = tested on: TK-10 renal
[53] = tested on: SF-268 CNS
[54] = tested on: COLO 205 colon
[55] = tested on: MOLT-4 leukemia
[56] = tested on: NCI-H226 lung
[57] = tested on: SK-MEL-5 melanoma
[58] = tested on: CCRF-CEM leukemia
[59] = tested on: SF-539 CNS

c1ccc2sc(SCCSc3nc4ccccc4s3)nc2c1
TGI [1]: > 100 µM
TGI [2]: > 100 µM
TGI [3]: > 100 µM
TGI [4]: > 100 µM
TGI [5]: > 100 µM
TGI [6]: > 100 µM
TGI [7]: > 100 µM
TGI [8]: > 100 µM
TGI [9]: > 100 µM
TGI [10]: > 100 µM
TGI [11]: > 100 µM
TGI [12]: > 100 µM
TGI [13]: > 100 µM
TGI [14]: > 100 µM
TGI [15]: > 100 µM
TGI [16]: > 100 µM
TGI [17]: > 100 µM
TGI [18]: > 100 µM
TGI [19]: > 100 µM
TGI [20]: > 100 µM
TGI [21]: > 100 µM
TGI [22]: > 100 µM
TGI [23]: > 100 µM
TGI [24]: > 100 µM
TGI [25]: > 100 µM
TGI [26]: > 100 µM
TGI [27]: > 100 µM
TGI [28]: > 100 µM
TGI [29]: > 100 µM
TGI [30]: > 100 µM
TGI [31]: > 100 µM
TGI [32]: > 100 µM
TGI [33]: > 100 µM
TGI [34]: > 100 µM
TGI [35]: > 100 µM
TGI [36]: > 100 µM
TGI [37]: > 100 µM
TGI [38]: > 100 µM
TGI [39]: > 100 µM
TGI [40]: > 100 µM
TGI [41]: > 100 µM
TGI [42]: > 100 µM
TGI [43]: > 100 µM
TGI [44]: > 100 µM
TGI [45]: > 100 µM
TGI [46]: > 100 µM
TGI [47]: > 100 µM
TGI [48]: > 100 µM
TGI [49]: > 100 µM
TGI [50]: > 100 µM
TGI [51]: > 100 µM
TGI [52]: > 100 µM
TGI [53]: > 100 µM

CC(C)c1[nH]nc(C(N)=O)c1N=NN(C)C
TGI [1]: > 100 µM
TGI [2]: > 100 µM
TGI [3]: > 100 µM
TGI [4]: > 100 µM
TGI [5]: > 100 µM
TGI [6]: 71.2 µM
TGI [7]: > 100 µM
TGI [54]: > 100 µM
TGI [55]: > 100 µM
TGI [8]: > 100 µM
TGI [56]: 71.6 µM
TGI [9]: > 100 µM
TGI [10]: > 100 µM
TGI [11]: > 100 µM
TGI [12]: > 100 µM
TGI [13]: > 100 µM
TGI [14]: > 100 µM
TGI [15]: > 100 µM
TGI [16]: > 100 µM
TGI [17]: > 100 µM
TGI [18]: > 100 µM
TGI [19]: > 100 µM
TGI [20]: > 100 µM
TGI [21]: > 100 µM
TGI [22]: > 100 µM
TGI [23]: > 100 µM
TGI [57]: > 100 µM
TGI [24]: > 100 µM
TGI [25]: > 100 µM
TGI [26]: > 100 µM
TGI [27]: > 100 µM
TGI [28]: > 100 µM
TGI [29]: > 100 µM
TGI [30]: > 100 µM
TGI [31]: > 100 µM
TGI [32]: 67.8 µM
TGI [33]: > 100 µM
TGI [34]: > 100 µM
TGI [35]: > 100 µM
TGI [36]: 65.4 µM
TGI [37]: > 100 µM
TGI [38]: > 100 µM
TGI [39]: > 100 µM
TGI [58]: > 100 µM
TGI [40]: > 100 µM
TGI [41]: > 100 µM
TGI [43]: 2.19 µM
TGI [44]: > 100 µM
TGI [45]: > 100 µM
TGI [46]: > 100 µM
TGI [47]: > 100 µM
TGI [48]: > 100 µM
TGI [49]: > 100 µM
TGI [50]: > 100 µM
TGI [51]: > 100 µM
TGI [59]: > 100 µM
TGI [52]: > 100 µM
TGI [53]: > 100 µM

COC(=O)/C(C#N)=C(\Nc1ccccc1)N1CCOCC1
TGI [1]: > 100 µM
TGI [2]: > 100 µM
TGI [3]: > 100 µM
TGI [4]: > 100 µM
TGI [5]: > 100 µM
TGI [6]: > 100 µM
TGI [7]: > 100 µM
TGI [54]: > 100 µM
TGI [55]: > 100 µM
TGI [8]: > 100 µM
TGI [56]: > 100 µM
TGI [10]: > 100 µM
TGI [11]: > 100 µM
TGI [12]: > 100 µM
TGI [13]: > 100 µM
TGI [14]: > 100 µM
TGI [15]: > 100 µM
TGI [16]: > 100 µM
TGI [17]: > 100 µM
TGI [18]: > 100 µM
TGI [19]: > 100 µM
TGI [20]: > 100 µM
TGI [21]: > 100 µM
TGI [22]: > 100 µM
TGI [23]: > 100 µM
TGI [57]: > 100 µM
TGI [24]: > 100 µM
TGI [25]: > 100 µM
TGI [26]: > 100 µM
TGI [27]: > 100 µM
TGI [29]: > 100 µM
TGI [30]: > 100 µM
TGI [31]: > 100 µM
TGI [32]: > 100 µM
TGI [33]: > 100 µM
TGI [34]: > 100 µM
TGI [35]: > 100 µM
TGI [36]: > 100 µM
TGI [37]: > 100 µM
TGI [38]: > 100 µM
TGI [39]: > 100 µM
TGI [40]: > 100 µM
TGI [41]: > 100 µM
TGI [42]: > 100 µM
TGI [43]: > 100 µM
TGI [44]: > 100 µM
TGI [45]: > 100 µM
TGI [46]: > 100 µM
TGI [47]: > 100 µM
TGI [48]: > 100 µM
TGI [49]: > 100 µM
TGI [50]: > 100 µM
TGI [51]: > 100 µM
TGI [59]: > 100 µM
TGI [52]: > 100 µM
TGI [53]: > 100 µM

N=C1OC(CN2CCN(c3ccccc3)CC2)CN1C(=S)Nc1ccccc1 (stereo unspecified)
TGI [1]: > 100 µM
TGI [2]: > 100 µM
TGI [3]: > 100 µM
TGI [4]: > 100 µM
TGI [5]: > 100 µM
TGI [6]: > 100 µM
TGI [7]: > 100 µM
TGI [54]: > 100 µM
TGI [55]: > 100 µM
TGI [8]: > 100 µM
TGI [56]: > 100 µM
TGI [9]: > 100 µM
TGI [10]: > 100 µM
TGI [11]: > 100 µM
TGI [12]: > 100 µM
TGI [13]: > 100 µM
TGI [14]: > 100 µM
TGI [15]: > 100 µM
TGI [16]: > 100 µM
TGI [17]: > 100 µM
TGI [18]: > 100 µM
TGI [19]: > 100 µM
TGI [20]: > 100 µM
TGI [21]: > 100 µM
TGI [22]: > 100 µM
TGI [23]: > 100 µM
TGI [57]: > 100 µM
TGI [24]: > 100 µM
TGI [25]: > 100 µM
TGI [26]: 72.7 µM
TGI [27]: > 100 µM
TGI [28]: > 100 µM
TGI [29]: > 100 µM
TGI [30]: > 100 µM
TGI [31]: > 100 µM
TGI [32]: > 100 µM
TGI [33]: > 100 µM
TGI [34]: > 100 µM
TGI [35]: > 100 µM
TGI [36]: > 100 µM
TGI [37]: > 100 µM
TGI [38]: > 100 µM
TGI [39]: > 100 µM
TGI [58]: > 100 µM
TGI [40]: > 100 µM
TGI [41]: > 100 µM
TGI [42]: > 100 µM
TGI [43]: > 100 µM
TGI [44]: > 100 µM
TGI [45]: > 100 µM
TGI [46]: > 100 µM
TGI [47]: > 100 µM
TGI [48]: > 100 µM
TGI [49]: > 100 µM
TGI [50]: > 100 µM
TGI [51]: > 100 µM
TGI [59]: > 100 µM
TGI [52]: > 100 µM
TGI [53]: > 100 µM
